Read-outs that look alike come from different tables or passages of the source.

The target in test [1] is T1, PI3Kβ (Homo sapiens, UniProt P42338).
T1 construct: purchased DiscoveRx Corporation, San Diego (contract service, KINOMEscan)
Put plainly: Enzyme binding assay (KINOMEscan, DiscoveRx). The conditions noted are these: PIK3Cβ_h, read-out: Kd PIK3Cβ_h. The procedure, abridged:
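Using the KINOMEscan format, the enzyme binding affinity of each compound was determined. Each value is the inhibitor binding constant, Kd (nM).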

The target of test [2] is T2, PI3Kδ (Homo sapiens, UniProt O00329).
T2 construct: purchased DiscoveRx Corporation, San Diego (contract service, KINOMEscan)
T2 sequence (O00329 1-1044): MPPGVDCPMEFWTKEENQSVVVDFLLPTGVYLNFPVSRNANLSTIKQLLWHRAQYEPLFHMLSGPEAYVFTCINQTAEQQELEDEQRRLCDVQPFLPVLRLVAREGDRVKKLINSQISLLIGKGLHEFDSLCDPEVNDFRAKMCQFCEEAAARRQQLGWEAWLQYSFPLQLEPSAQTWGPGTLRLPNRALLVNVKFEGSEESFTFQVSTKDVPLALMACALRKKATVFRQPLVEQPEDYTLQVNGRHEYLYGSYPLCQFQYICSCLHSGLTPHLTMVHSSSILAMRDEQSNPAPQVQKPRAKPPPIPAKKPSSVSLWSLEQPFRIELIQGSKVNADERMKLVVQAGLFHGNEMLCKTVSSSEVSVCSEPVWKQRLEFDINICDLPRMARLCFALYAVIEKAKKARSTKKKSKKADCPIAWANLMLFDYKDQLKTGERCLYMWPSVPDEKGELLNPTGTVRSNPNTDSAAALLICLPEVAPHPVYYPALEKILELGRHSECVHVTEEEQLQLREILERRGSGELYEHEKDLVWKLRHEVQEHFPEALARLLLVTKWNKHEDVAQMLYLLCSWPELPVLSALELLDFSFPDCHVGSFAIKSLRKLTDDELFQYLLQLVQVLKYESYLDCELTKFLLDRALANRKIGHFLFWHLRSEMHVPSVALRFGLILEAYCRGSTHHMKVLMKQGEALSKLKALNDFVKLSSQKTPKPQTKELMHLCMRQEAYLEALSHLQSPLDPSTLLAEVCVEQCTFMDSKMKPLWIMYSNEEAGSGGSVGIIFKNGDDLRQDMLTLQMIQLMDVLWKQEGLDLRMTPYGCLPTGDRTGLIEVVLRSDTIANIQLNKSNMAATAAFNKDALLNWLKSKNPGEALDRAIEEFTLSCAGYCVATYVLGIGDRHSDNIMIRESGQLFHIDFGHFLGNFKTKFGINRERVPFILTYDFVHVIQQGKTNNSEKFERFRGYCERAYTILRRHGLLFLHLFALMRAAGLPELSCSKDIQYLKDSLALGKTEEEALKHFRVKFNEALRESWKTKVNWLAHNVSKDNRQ
Put plainly: Enzyme binding assay (KINOMEscan, DiscoveRx). The conditions noted are these: PIK3Cδ_h. The procedure, abridged: (§1)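 Uses KINOMEscan technology to determine binding affinity toward the kinase enzymes.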

Test [3] concerns the target T3, kinase enzymes (Homo sapiens, UniProt P42336).
T3 construct: purchased DiscoveRx Corporation, San Diego (contract service, KINOMEscan)
Nature of the test: Enzyme binding assay (KINOMEscan, DiscoveRx), further kinases of Table A. The conditions noted are these: PIK3Cα_h. The procedure, abridged: as §1

Test [4] has as its target T4, kinase enzymes (Homo sapiens, UniProt P42345).
T4 construct: purchased DiscoveRx Corporation, San Diego (contract service, KINOMEscan)
The description is as above. The conditions noted are these: MTOR_h. The procedure, abridged: as §1

In test [5] the target is T5, kinase enzymes (Homo sapiens, UniProt P48736).
T5 construct: purchased DiscoveRx Corporation, San Diego (contract service, KINOMEscan)
T5 sequence (P48736 whole entry): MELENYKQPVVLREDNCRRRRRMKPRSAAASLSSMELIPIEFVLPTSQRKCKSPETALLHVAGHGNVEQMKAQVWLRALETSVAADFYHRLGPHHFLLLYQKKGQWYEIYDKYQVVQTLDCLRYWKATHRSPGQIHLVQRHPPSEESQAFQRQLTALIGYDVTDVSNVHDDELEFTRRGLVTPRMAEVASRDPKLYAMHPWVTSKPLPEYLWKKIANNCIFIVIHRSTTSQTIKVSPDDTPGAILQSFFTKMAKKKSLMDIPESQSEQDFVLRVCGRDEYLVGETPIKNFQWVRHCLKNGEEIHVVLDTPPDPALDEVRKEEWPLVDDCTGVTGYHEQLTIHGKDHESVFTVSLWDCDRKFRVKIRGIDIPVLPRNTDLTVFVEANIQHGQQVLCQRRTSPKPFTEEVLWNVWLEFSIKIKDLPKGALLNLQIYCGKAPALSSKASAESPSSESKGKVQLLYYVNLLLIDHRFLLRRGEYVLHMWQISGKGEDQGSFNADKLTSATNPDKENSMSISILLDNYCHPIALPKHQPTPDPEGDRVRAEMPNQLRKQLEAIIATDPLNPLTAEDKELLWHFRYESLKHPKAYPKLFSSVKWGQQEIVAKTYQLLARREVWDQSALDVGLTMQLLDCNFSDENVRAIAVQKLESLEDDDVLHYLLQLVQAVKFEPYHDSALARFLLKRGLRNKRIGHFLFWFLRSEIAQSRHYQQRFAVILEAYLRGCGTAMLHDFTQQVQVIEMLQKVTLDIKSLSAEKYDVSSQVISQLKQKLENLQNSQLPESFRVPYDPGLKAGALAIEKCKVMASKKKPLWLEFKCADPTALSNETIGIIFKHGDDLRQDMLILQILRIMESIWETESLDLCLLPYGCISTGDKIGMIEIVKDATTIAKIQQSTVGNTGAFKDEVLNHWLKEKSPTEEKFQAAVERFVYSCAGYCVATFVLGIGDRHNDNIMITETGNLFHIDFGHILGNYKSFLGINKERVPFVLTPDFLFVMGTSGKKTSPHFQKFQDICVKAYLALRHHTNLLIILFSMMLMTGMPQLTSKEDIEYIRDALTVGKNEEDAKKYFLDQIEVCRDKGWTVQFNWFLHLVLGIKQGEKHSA
Described as above. The conditions noted are these: PIK3Cγ_h. In a few lines:
as §1

Test [6] concerns Akt phosphorylated at Ser473 in PC-3 cells. Put plainly: Cellular assay: phosphorylation of Akt at Ser473 in PC-3 cells (MSD ELISA). Format: cell-based. The conditions noted are these: PC-3 cells, 60 min compound incubation, MSD ELISA, read-out: IC50 pAkt_S473. The procedure, abridged: (§2)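 Compound treatment of PC-3 cells lasted 60 min at 37° C (0.3% DMSO). Lysates were then applied to plates carrying capture antibodies for the relevant phospho-site, and bound Akt was detected with an electrochemiluminescent anti-total Akt antibody; IC50s derive from five-point curves.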
On the technique in general: An ELISA detects its analyte on a solid surface through an enzyme-linked reagent.

Test [7] concerns Akt phosphorylated at Thr308 in PC-3 cells. Put plainly: Cellular assay: phosphorylation of Akt at Thr308 in PC-3 cells (MSD ELISA). Format: cell-based. The conditions noted are these: PC-3 cells, 60 min compound incubation, MSD ELISA, read-out: IC50 pAkt_Thr308. The procedure, abridged:
as §2

T1 sequence (P42338 whole entry): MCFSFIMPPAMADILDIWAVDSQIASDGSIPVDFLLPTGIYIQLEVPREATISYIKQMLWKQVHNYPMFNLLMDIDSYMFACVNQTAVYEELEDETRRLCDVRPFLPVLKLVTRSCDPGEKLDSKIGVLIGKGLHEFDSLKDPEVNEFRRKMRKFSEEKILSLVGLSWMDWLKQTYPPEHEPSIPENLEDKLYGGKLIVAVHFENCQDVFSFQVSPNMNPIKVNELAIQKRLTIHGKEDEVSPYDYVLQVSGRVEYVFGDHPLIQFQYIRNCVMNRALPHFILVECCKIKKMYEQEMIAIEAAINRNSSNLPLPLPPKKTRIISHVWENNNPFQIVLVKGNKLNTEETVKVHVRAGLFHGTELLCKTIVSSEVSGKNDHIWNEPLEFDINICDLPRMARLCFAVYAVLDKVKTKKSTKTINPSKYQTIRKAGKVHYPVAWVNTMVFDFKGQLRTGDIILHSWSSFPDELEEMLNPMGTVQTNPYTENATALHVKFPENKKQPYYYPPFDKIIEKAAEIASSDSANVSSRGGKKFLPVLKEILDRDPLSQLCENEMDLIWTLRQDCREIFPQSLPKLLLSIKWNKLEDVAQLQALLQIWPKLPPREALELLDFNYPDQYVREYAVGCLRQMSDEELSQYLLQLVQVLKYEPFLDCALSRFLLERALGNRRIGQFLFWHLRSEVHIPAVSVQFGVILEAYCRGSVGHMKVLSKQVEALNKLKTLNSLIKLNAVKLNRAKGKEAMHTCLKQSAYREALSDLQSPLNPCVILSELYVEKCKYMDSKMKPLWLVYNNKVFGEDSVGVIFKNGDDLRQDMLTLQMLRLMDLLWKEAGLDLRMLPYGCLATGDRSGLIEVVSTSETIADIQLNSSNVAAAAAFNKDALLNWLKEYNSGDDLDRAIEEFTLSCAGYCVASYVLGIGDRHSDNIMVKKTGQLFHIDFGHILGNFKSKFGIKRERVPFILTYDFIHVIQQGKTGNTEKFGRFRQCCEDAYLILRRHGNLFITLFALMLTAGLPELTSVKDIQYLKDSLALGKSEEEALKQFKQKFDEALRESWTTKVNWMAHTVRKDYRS
T3 sequence (P42336 whole entry): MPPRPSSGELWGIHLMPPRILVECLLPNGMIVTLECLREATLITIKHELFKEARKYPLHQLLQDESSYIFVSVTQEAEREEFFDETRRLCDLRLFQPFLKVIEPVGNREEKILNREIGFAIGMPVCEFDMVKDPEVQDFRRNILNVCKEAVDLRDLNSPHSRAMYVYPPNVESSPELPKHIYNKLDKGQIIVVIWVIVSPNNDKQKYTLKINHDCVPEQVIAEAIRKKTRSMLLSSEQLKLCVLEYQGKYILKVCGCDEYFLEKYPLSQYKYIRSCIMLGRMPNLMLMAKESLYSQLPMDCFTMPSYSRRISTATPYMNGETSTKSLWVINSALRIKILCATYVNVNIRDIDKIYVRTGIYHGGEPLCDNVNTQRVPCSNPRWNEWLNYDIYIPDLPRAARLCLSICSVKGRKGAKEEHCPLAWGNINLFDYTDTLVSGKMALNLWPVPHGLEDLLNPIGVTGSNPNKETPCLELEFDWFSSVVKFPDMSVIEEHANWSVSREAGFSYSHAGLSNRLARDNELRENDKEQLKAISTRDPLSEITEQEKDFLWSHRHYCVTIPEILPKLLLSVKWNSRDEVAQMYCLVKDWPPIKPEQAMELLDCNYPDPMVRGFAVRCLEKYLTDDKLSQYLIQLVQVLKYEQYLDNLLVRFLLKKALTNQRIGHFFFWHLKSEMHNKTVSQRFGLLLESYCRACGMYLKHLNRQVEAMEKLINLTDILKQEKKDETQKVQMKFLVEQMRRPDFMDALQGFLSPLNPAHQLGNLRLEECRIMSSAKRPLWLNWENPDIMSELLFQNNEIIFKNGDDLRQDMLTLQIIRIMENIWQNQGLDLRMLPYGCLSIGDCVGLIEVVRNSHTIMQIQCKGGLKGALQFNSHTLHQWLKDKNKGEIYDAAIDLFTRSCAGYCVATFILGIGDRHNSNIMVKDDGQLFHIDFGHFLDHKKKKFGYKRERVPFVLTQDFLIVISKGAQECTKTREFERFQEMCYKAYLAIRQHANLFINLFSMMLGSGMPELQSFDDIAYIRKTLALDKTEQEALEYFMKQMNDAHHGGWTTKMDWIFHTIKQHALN

As a reminder, the Kd is the concentration at which binding is half-saturated. What is called IC50 is the concentration that inhibits the measured activity by half. For the molecule `CC(C)NCCNC(=O)c1cc(C(C)Nc2ccc(F)c(F)c2)c2nc(N3CCOCC3)cnc2c1` (single isomer, unassigned) [Compound 364b], the Kd was 372 nM in test [1]; 7760 nM in test [2]; 7080 nM in test [3]; greater than 30200 nM in test [4]; 8130 nM in test [5]. The IC50 in test [6] and in test [7] was greater than 513 nM in each case.

As for `O=C(NCCO)c1cc(N2CCCC2c2cc(F)cc(F)c2)c2nc(N3CCOCC3)cnc2c1` (single isomer, unassigned) [Compound 245], the Kd in test [1] was 72 nM; in test [2], 1050 nM; in test [3], 8710 nM; in test [4], 21900 nM; in test [5], 13200 nM. Besides, the IC50 in test [6] and in test [7] was greater than 513 nM each time.

On to `CC1CN(c2cnc3cc(C(=O)N(C)C)cc(C4CCCN4c4cc(F)cc(F)c4)c3n2)CCO1` (stereo not drawn) [Compound 36], for which the Kd in test [1] stood at 2 nM; in test [2] it was 107 nM; in test [3], 224 nM; in test [4], 15800 nM; in test [5], 1590 nM. The IC50 in test [6] (Homo sapiens, PC-3, 1 h) is 10 nM; in test [7] (Homo sapiens, PC-3, 1 h), 5 nM.

On to `CNCCNC(=O)c1cc(C(C)Oc2ccc(F)c(F)c2)c2nc(N3CCOCC3)cnc2c1` (single isomer, unassigned) [Compound 344b], for which the Kd in test [1] was 166 nM; in test [2], 3800 nM; in test [3], 8130 nM; in test [4], greater than 30200 nM; in test [5], 14100 nM. Further, the IC50 in test [6] is greater than 513 nM; in test [7], roughly 513 nM.

Regarding `CC(Nc1ccc(F)c(F)c1)c1cc(C(=O)N2CC[C@@H](O)C2)cc2ncc(N3CCOCC3)nc12` (stereo partly drawn) [Compound 300], the Kd in test [1] is 4 nM; in test [2] it was 513 nM; in test [3], 2690 nM; in test [4], greater than 30200 nM; in test [5], 17000 nM. Also, the IC50 in test [6] (Homo sapiens, PC-3, 1 h) came to 71 nM; in test [7] (Homo sapiens, PC-3, 1 h), 85 nM.

Turning to `CC(Nc1cc(F)cc(F)c1)c1cc(C(=O)N(C)C)cc2ncc(C3=CCOCC3)nc12` (single isomer, unassigned) [Compound 159], the Kd in test [1] is 110 nM; in test [2], 23400 nM; in test [3] it was greater than 30200 nM; in test [4], greater than 30200 nM; in test [5], greater than 30200 nM. The IC50 in test [6] and in test [7] was greater than 513 nM each time.

`COC(=O)c1cc(C(C)Nc2cc(F)cc(F)c2)c2nc(N3CCOCC3)cnc2c1` (stereo not drawn) [Compound 235]: the Kd in test [1] was 50 nM; in test [2], 7590 nM; in test [3], greater than 32000 nM; in test [4], greater than 32000 nM; in test [5], 24500 nM. Besides, the IC50 in test [6] (Homo sapiens, PC-3, 1 h) worked out at 214 nM; in test [7] (Homo sapiens, PC-3, 1 h), 79 nM.

As to `CNCCN(C)C(=O)c1cc(N(C)Cc2cccc(F)c2C)c2nc(N3CCOCC3)cnc2c1` [Compound 362], the Kd in test [1] worked out at 2 nM; in test [2] it was 490 nM; in test [3] it was 2950 nM; in test [4], 19100 nM; in test [5], 9770 nM. Besides, the IC50 was 229 nM in test [6] (Homo sapiens, PC-3, 1 h) and 263 nM in test [7] (Homo sapiens, PC-3, 1 h).

On to `CC(C)NCCNC(=O)c1cc(C(C)Oc2ccc(F)c(F)c2)c2nc(N3CCOCC3)cnc2c1` (racemic) [Compound 286], for which the Kd was 18 nM in test [1]; 2040 nM in test [2]; 7410 nM in test [3]; greater than 30200 nM in test [4]; 17000 nM in test [5]. The IC50 was determined as 398 nM in test [6] and 245 nM in test [7].

On to `CC(Oc1cc(F)c(F)c(F)c1)c1cc(C(=O)N(C)C2CCNC2)cc2ncc(N3CCOCC3)nc12` (single isomer, unassigned) [Compound 404a], for which the Kd in test [1] is 1510 nM; in test [2], greater than 30200 nM; in test [3], greater than 30200 nM; in test [4], greater than 30200 nM; in test [5], greater than 30200 nM. The IC50 in test [6] (Homo sapiens, PC-3, 1 h) is greater than 513 nM; in test [7] (Homo sapiens, PC-3, 1 h), greater than 513 nM.

Turning to `CC(Nc1cc(F)cc(F)c1)c1cc(C(C)(C)O)cc2ncc(N3CCOCC3)nc12` (stereo not drawn) [Compound 341], the Kd came out at 17 nM in test [1]; 1480 nM in test [2]; 3390 nM in test [3]; 21400 nM in test [4]; 8130 nM in test [5]. The IC50 in test [6] (Homo sapiens, PC-3, 1 h) came to 46 nM; in test [7] (Homo sapiens, PC-3, 1 h), 26 nM.

On to `CC(Nc1cc(F)cc(F)c1)c1cc(C(=O)N2CC3(C2)CS(=O)(=O)C3)cc2ncc(N3CCOCC3)nc12` (stereo not drawn) [Compound 148], for which the Kd was 1 nM in test [1]; 316 nM in test [2]; 1070 nM in test [3]; greater than 30200 nM in test [4]; 8130 nM in test [5]. Also, the IC50 in test [6] (Homo sapiens, PC-3, 1 h) was determined as 68 nM; in test [7] (Homo sapiens, PC-3, 1 h), 30 nM.

Turning to `CC(Oc1cc(F)cc(F)c1)c1cc(C(=O)N(C)C)cc2ncc(N3CCOCC3)nc12` (single isomer, unassigned) [Compound 6], the Kd in test [1] is 1890 nM; in test [2], 16900 nM; in test [3], 26000 nM; in test [4] it was greater than 30200 nM; in test [5], greater than 30200 nM. Moreover, the IC50 in test [6] and in test [7] was greater than 513 nM each time.

For `CCN1CCN(C(=O)c2cc(C(C)Oc3cccc(F)c3)c3nc(N4CCOCC4)cnc3c2)CC1` (single isomer, unassigned) [Compound 91], the Kd in test [1] is 10 nM; in test [2], 1230 nM; in test [3] it was 4470 nM; in test [4], greater than 30200 nM; in test [5], 21400 nM. The IC50 in test [6] (Homo sapiens, PC-3, 1 h) is greater than 513 nM; in test [7], 234 nM.

As for `O=C(NCCO)c1cc(N2CCC2c2ccc(F)cc2)c2nc(N3CCOCC3)cnc2c1` (stereo not drawn) [Compound 391], the Kd turned out to be 251 nM in test [1]; 3390 nM in test [2]; 5490 nM in test [3]; 24500 nM in test [4]; 12000 nM in test [5]. The IC50 in test [6] (Homo sapiens, PC-3, 1 h) is greater than 513 nM; in test [7] (Homo sapiens, PC-3, 1 h), greater than 513 nM.

Consider `Cc1c(F)cccc1CN(C)c1cc(C(=O)N2CCNC(C(F)(F)F)C2)cc2ncc(N3CCOCC3)nc12` (single isomer, unassigned) [Compound 367a], for which the Kd in test [1] is 63 nM; in test [2], 1150 nM; in test [3], 4070 nM; in test [4], 29500 nM; in test [5], 23400 nM. Moreover, the IC50 was greater than 513 nM in test [6] (Homo sapiens, PC-3, 1 h) and greater than 513 nM in test [7] (Homo sapiens, PC-3, 1 h).

Turning to `CC(Nc1cc(F)cc(F)c1)c1cc(CN2CCS(=O)(=O)CC2)cc2ncc(N3CCOCC3)nc12` (single isomer, unassigned) [Compound 156], the Kd in test [1] was 2 nM; in test [2], 363 nM; in test [3], 398 nM; in test [4], greater than 30200 nM; in test [5] it was greater than 30200 nM. The values for the IC50 in test [6] and in test [7] were 42 nM and 51 nM, respectively.

On to `CC(Oc1cc(F)cc(F)c1)c1cc(C(=O)N(C)CCO)cc2ncc(N3CCOCC3)nc12` (single isomer, unassigned) [Compound 60], for which the Kd in test [1] was 490 nM; in test [2] it was 15500 nM; in test [3], 22900 nM; in test [4], greater than 30200 nM; in test [5], greater than 30200 nM. Also, the half-inhibitory concentration (IC50) in test [6] and in test [7] was greater than 513 nM each time.

Values taken from patent publication US10526316B2, “Quinoxaline and pyridopyrazine derivatives as PI3Kβ inhibitors” (Janssen Pharmaceutica NV, priority 2015, dated 2020).
